≈ marks a conversion by molar mass, not a printed value.

Series [1] addresses T1, Tyrosine-protein kinase ITK/TSK (Homo sapiens, UniProt Q08881).
T1 sequence (Q08881 whole entry): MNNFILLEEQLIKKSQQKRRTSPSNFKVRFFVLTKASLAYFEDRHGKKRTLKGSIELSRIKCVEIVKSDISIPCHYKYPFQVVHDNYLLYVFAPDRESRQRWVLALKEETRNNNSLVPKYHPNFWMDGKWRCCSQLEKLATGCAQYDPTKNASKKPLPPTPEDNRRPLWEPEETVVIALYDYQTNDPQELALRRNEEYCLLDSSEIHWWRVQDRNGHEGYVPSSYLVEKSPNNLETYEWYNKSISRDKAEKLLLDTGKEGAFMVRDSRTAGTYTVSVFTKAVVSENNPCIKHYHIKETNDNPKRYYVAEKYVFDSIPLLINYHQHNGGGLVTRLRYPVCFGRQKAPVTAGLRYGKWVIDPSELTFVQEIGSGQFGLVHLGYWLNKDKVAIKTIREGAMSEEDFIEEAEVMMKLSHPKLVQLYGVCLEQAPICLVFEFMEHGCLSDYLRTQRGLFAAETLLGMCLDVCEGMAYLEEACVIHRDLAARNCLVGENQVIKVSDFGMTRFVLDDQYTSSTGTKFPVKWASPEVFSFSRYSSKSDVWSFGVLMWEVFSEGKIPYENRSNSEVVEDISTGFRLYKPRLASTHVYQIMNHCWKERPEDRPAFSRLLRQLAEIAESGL
The series can be described thus: Inhibition of ITK in human Jurkat cells assessed as inhibition of PLC-gamma1 phosphorylation by immuno-detection assay. Type of series: cell-based.

Series [2] has as its target Tyrosine-protein kinase Lck (Homo sapiens, UniProt P06239). In words: Inhibition of LCK (unknown origin).
The nature of series [3]: Aqueous solubility of the compound at pH 7.4. Type of series: physicochemical. To be noted: buffer.
The target of series [4] is T1, Tyrosine-protein kinase ITK/TSK. The series can be described thus: Inhibition of full length GST-tagged ITK (unknown origin) using Ac-EFPIYDFLPAKKK-NH2 as substrate after 35 mins by LC/MS analysis.
Series [5] can be described thus: Lipophilicity, log D of the compound at pH 7.4. Particulars: buffer.
Series [6] concerns the target Serine/threonine-protein kinase PAK 4 (Homo sapiens) (UniProt O96013). The series can be described thus: Inhibition of PAK4 (unknown origin) at 0.1 uM relative to control.
The nature of series [7]: Half life in rat at 5 mg/kg, po. Type of series: ADME, organism-based. Also on record: dose 5 mg/kg, route oral. To be noted: in vivo.
Series [8] concerns the target Cyclin-dependent kinase 2 (Homo sapiens) (UniProt P24941). In words: Inhibition of CDK2 (unknown origin) at 0.1 uM relative to control.
Series [9] in a line: Oral bioavailability in rat at 5 mg/kg. The series is classed as ADME, organism-based. To be noted: in vivo.
Series [10] has as its target Receptor-type tyrosine-protein kinase FLT3 (Homo sapiens) (UniProt P36888). The series can be described thus: Inhibition of FLT3 (unknown origin) at 0.1 uM relative to control.
A short description of series [11]: Half life in rat at 1 mg/kg, iv. Also on record: dose 1 mg/kg, route intravenous. Type of series: ADME, organism-based. Particulars: in vivo.
Series [12] has as its target T2, Tyrosine-protein kinase TXK (Homo sapiens) (UniProt P42681).
T2 sequence (whole entry): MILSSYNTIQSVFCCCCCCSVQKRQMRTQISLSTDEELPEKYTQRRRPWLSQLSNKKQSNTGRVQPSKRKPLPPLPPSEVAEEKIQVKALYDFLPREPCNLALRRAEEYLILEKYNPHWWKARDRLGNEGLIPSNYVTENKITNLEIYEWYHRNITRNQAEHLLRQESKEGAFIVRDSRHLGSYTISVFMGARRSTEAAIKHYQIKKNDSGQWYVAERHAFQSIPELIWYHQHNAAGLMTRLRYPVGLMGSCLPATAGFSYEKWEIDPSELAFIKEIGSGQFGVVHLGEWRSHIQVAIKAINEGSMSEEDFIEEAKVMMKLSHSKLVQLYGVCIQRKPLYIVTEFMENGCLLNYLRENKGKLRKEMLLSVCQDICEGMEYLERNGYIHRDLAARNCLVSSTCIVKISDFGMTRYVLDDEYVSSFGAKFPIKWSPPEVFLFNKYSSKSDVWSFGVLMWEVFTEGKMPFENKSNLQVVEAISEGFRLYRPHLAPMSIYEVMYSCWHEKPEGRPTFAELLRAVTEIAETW
In words: Inhibition of TXK (unknown origin) at 0.1 uM relative to control.

The nature of series [13]: Clearance in rat at 1 mg/kg, iv. Particulars: in vivo. Details: dose 1 mg/kg, route intravenous. The series is classed as ADME, organism-based.
For series [14], the target named is Casein kinase I isoform alpha (Homo sapiens) (UniProt P48729). In words: Inhibition of CK1alpha (unknown origin) at 0.1 uM relative to control.
Chain of Casein kinase I isoform alpha (Homo sapiens) (P48729 2-337 limits assumed): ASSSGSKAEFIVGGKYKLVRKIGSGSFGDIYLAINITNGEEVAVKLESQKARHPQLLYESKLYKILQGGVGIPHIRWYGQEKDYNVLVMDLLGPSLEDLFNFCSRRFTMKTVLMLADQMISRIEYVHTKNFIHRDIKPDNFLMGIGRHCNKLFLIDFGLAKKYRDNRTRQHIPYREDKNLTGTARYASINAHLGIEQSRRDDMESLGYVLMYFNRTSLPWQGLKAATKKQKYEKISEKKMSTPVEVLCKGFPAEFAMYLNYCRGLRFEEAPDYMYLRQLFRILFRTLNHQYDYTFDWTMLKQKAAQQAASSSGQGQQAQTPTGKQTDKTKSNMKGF
Series [15] is described as follows: AUC (last) in rat at 1 mg/kg, iv. The series is classed as ADME, organism-based. Also on record: time 0 - last, dose 1 mg/kg, route intravenous. To be noted: plasma.
Series [16] deals with Vascular endothelial growth factor receptor 2 (Homo sapiens) (UniProt P35968). In words: Inhibition of KDR (unknown origin) at 0.1 uM relative to control.
Chain of Vascular endothelial growth factor receptor 2 (Homo sapiens) (P35968 whole entry): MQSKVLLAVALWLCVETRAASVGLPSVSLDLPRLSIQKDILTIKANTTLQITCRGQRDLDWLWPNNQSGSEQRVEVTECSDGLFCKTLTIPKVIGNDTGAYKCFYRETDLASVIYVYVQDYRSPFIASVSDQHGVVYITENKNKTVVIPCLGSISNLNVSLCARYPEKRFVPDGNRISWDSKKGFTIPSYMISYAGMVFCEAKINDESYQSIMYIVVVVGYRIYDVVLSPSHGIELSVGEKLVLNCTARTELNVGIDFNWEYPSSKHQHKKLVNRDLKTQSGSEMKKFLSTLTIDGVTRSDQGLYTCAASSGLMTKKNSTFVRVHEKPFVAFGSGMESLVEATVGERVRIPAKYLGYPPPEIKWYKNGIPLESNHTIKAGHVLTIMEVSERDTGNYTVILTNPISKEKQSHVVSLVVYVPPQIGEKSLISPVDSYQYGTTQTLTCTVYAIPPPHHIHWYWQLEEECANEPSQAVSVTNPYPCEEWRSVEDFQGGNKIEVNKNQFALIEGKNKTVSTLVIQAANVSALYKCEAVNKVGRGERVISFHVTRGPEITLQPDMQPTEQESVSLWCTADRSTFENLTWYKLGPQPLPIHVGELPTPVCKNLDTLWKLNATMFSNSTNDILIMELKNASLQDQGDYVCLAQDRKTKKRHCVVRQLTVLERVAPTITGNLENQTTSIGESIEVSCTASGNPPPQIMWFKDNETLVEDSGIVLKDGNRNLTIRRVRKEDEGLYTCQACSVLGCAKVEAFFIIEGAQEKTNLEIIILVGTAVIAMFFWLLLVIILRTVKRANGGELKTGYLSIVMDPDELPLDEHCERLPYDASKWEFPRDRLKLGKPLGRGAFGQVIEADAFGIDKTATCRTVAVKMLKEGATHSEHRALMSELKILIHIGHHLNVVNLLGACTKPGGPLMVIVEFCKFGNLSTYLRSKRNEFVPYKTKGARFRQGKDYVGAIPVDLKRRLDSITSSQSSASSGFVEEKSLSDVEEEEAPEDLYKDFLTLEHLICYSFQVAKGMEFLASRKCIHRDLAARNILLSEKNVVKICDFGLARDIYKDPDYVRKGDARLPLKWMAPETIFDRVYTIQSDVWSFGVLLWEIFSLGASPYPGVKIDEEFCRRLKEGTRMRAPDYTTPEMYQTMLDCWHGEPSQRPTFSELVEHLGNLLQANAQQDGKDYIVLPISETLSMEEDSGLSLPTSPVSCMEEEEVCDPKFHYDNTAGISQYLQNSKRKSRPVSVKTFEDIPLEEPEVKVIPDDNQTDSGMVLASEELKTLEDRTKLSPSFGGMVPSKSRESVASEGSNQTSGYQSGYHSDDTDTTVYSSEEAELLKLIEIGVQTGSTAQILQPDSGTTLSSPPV
Series [17] is described as follows: Volume of distribution at steady state in rat at 1 mg/kg, iv. The series is classed as ADME, organism-based. Details: dose 1 mg/kg, route intravenous. To be noted: in vivo, read-out: Vdss.
The target in series [18] is Tyrosine-protein kinase Yes (Homo sapiens) (UniProt P07947). The series can be described thus: Inhibition of YES (unknown origin) at 0.1 uM relative to control.
Chain of Tyrosine-protein kinase Yes (Homo sapiens) (P07947 2-543 limits assumed): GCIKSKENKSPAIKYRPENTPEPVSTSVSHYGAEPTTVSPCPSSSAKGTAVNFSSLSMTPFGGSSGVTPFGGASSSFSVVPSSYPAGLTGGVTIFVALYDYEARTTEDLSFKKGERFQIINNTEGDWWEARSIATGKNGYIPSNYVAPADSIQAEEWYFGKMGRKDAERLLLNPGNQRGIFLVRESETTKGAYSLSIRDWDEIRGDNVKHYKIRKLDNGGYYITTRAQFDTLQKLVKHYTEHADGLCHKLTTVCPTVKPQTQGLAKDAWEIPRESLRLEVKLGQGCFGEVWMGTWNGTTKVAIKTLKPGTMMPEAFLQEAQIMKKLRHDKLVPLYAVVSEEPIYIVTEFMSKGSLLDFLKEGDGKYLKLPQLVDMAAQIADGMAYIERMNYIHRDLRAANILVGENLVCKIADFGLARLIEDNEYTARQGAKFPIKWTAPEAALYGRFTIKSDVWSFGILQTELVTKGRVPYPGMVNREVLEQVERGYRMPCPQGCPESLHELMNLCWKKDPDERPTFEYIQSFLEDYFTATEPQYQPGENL
Series [19] concerns the target Tyrosine-protein kinase ABL1 (Homo sapiens) (UniProt P00519). In words: Inhibition of ABL (unknown origin) at 0.1 uM relative to control.
Series [20] can be described thus: AUC (last) in rat at 5 mg/kg, po. Type of series: ADME, organism-based. Also on record: time 0 - last, dose 5 mg/kg, route oral. Particulars: plasma.
Series [21] addresses T3, Muscle, skeletal receptor tyrosine-protein kinase (Homo sapiens) (UniProt O15146).
T3 sequence (whole entry): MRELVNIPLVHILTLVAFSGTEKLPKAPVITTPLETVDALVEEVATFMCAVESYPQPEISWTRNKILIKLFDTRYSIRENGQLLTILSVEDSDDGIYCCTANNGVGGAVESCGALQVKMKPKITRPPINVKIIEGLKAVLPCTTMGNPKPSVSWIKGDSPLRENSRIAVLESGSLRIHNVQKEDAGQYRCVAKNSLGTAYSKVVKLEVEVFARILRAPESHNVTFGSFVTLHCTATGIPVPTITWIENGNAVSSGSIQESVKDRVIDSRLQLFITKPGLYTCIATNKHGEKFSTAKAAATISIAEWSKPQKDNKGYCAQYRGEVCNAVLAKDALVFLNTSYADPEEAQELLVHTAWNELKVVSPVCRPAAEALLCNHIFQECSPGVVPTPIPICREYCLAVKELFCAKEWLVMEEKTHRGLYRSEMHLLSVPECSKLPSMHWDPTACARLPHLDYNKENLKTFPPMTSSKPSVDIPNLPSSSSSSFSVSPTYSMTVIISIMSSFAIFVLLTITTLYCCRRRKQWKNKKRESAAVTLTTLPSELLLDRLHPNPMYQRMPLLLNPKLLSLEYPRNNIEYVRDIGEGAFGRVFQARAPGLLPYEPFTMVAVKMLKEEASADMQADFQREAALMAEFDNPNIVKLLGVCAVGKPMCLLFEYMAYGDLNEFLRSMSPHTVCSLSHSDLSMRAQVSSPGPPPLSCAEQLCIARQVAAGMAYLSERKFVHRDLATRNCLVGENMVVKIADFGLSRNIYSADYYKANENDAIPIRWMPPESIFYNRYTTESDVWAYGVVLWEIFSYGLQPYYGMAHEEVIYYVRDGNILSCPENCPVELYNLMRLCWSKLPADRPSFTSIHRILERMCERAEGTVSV
In words: Inhibition of MUSK (unknown origin) at 1 uM relative to control.

The target in series [22] is Tyrosine-protein kinase ABL1 (Homo sapiens) (UniProt P00519). The series can be described thus: Inhibition of ABL (unknown origin) at 1 uM relative to control.
Chain of Tyrosine-protein kinase ABL1 (Homo sapiens) (P00519 whole entry): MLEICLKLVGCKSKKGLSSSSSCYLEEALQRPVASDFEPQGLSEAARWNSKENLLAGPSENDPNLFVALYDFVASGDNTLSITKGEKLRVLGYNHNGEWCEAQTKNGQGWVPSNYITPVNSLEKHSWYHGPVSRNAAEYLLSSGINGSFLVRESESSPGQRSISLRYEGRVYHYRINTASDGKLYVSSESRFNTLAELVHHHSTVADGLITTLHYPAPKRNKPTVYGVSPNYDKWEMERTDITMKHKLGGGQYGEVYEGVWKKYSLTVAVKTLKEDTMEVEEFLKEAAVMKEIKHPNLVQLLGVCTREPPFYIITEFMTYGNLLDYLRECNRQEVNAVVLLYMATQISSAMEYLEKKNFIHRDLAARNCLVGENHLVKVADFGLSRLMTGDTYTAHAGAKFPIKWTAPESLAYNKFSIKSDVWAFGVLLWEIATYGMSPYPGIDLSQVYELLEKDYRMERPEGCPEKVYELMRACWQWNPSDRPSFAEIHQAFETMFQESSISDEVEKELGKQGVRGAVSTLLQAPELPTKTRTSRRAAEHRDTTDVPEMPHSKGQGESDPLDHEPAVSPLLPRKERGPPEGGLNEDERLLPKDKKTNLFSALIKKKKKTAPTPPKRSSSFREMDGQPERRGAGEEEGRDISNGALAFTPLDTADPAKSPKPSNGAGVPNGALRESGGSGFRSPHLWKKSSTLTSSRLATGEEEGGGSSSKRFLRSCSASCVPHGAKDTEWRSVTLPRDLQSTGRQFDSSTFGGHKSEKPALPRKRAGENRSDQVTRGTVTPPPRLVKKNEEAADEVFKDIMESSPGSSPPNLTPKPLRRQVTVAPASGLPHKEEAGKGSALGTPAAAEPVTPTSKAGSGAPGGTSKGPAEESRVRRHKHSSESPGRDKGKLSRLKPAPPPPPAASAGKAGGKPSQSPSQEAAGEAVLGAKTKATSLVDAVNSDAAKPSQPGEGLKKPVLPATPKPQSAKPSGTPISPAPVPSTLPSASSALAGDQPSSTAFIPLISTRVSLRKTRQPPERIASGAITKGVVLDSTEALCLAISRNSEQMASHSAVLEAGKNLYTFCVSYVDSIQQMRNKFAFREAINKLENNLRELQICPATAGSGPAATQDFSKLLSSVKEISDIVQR
Series [23] has as its system RAF proto-oncogene serine/threonine-protein kinase (Homo sapiens), P04049 [Y340D,Y341D]. In words: Inhibition of RAF Y340D/Y341D double mutant (unknown origin) at 1 uM relative to control.

Chain of Tyrosine-protein kinase Lck (P06239 whole entry): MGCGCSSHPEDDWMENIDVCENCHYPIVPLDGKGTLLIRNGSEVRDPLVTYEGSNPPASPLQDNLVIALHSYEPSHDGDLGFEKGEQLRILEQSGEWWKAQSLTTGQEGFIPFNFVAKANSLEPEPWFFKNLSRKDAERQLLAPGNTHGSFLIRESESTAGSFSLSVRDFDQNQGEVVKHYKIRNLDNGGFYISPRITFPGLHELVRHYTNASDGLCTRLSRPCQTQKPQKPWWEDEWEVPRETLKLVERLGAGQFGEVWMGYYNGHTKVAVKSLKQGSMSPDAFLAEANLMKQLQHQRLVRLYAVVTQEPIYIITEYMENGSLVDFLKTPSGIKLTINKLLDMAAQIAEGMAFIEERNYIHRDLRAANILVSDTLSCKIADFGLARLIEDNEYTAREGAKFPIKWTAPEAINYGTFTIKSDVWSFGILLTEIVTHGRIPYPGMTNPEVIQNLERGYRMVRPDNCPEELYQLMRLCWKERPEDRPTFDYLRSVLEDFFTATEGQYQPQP
Chain of RAF proto-oncogene serine/threonine-protein kinase (Homo sapiens), P04049 [Y340D,Y341D] (P04049 whole entry Y340D/Y341D): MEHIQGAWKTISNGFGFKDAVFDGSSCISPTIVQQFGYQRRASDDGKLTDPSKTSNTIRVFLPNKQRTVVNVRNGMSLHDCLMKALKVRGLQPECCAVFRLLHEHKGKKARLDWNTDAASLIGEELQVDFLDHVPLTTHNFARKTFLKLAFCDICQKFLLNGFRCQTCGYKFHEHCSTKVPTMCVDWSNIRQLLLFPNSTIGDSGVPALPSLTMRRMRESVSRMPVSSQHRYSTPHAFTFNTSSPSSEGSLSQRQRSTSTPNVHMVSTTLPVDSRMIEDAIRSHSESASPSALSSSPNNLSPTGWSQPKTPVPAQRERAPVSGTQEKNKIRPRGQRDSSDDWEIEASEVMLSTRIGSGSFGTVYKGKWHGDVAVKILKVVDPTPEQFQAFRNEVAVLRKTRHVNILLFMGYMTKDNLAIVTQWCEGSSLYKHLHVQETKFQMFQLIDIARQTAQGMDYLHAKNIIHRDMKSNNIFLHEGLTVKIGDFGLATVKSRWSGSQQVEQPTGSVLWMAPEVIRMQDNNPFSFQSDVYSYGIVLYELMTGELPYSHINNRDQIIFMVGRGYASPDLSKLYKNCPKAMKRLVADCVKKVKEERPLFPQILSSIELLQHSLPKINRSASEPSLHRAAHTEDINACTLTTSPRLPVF

Broadly, the IC50 is the point on the concentration scale where inhibition reaches its midpoint. In general, Ki refers to a dissociation constant, usually derived from enzyme kinetics or from competition with a known ligand. Low values mean higher affinity, high ones lower affinity. One may read the solubility as how much of the substance goes into solution per volume. One may read the logD as the decadic logarithm of the distribution of all forms, ionised or not, between an organic phase and buffer at a given pH. Read a low logD as a more hydrophilic compound. With `CN(C)Cc1ccc(C2CC2C(=O)Nc2nc3ccc(-c4cn[nH]c4)cc3s2)cc1` (racemic), the IC50 in series [1] amounted to 89 nM. Besides, the Ki was found to be 46 nM in [2] and 0.6 nM in [4]. Moreover, the solubility in series [3] was below 1 µM. The molecule further displayed a logD in [5] of 3.

Molecule `COc1ccc(C2CC2C(=O)Nc2nc3ccc(-c4cn[nH]c4)cc3s2)cc1` (racemic) gave a solubility in series [3] below 1 µM. Also, the logD in series [5] was found to be 4.4.

`COc1ccc2nc(NC(=O)[C@H]3C[C@@H]3c3ccccc3)sc2c1` (racemic): in series [3], the solubility was below 2 µM.

In turn, `COc1ccc([C@H]2C[C@@H]2C(=O)Nc2nc3ccc(-c4cn[nH]c4)cc3s2)cc1` showed a solubility in series [3] below 1 µM. The molecule also returned a logD in [5] of 4.4.

For `COc1ccc([C@H]2C[C@@H]2C(=O)Nc2nc3ccc(OC)cc3s2)cc1` (racemic), in [3], the solubility is 11 µM (≈ 3.9 µg/mL).

`CCN(CC)Cc1cc([C@H]2C[C@@H]2C(=O)Nc2nc3ccc(-c4cn[nH]c4)cc3s2)ccc1OC`: the concentration in solution in [3] (solubility) was 180 µM (≈ 85.6 µg/mL). In addition, in series [5], the logD came out at 2.6.

One may read the inhibition as the percentage by which the read-out fell short of the control. The term half-life denotes the time needed for the level to fall by half in the phase considered. A high value points to slow decline. One may read the bioavailability as the share of a dose that reaches the circulation, judged against a reference dose that is usually intravenous. Broadly, the clearance is the volume of plasma or blood freed of the substance per unit of time. Low readings indicate inefficient removal, high ones efficient removal. By AUC(0-t) is commonly meant the area under the concentration-time curve up to a stated or last time point. Low values mean less exposure, high ones more exposure. Turning to `CN(C)Cc1ccc([C@H]2C[C@@H]2C(=O)Nc2nc3ccc(-c4cn[nH]c4)cc3s2)cc1`, the inhibition in series [6], in [8], in series [10], in series [12], in [14] and in series [16] was above 50% throughout. Besides, the inhibition in [18] and in series [19] was above 50% each time. Moreover, the half-life in [7] was 180 min; in series [11], 204 min. The IC50 in series [1] was found to be 91 nM. The bioavailability in [9] came to 35%. The Ki came out at 55 nM in series [2] and 0.7 nM in [4]. This molecule also showed a solubility in series [3] below 1 µM. Also, the clearance in [13] turned out to be 12 mL/min/kg. The AUC(0-t) in series [15] was 2.8 µM·h; in series [20] it was 4.8 µM·h. Besides, in series [17], the Vd amounted to 3.2 L/kg. Also, in series [5], the logD was determined as 3.

For `COc1ccc([C@H]2C[C@@H]2C(=O)Nc2nc3ccc(-c4cncc(CO)c4)cc3s2)cc1` (racemic), the inhibition in series [21], in series [22] and in series [23] was above 50% throughout. In addition, the IC50 in series [1] was above 20000 nM. Moreover, the Ki in series [4] amounted to 5.3 nM.

Molecule `CN(C)Cc1cccc([C@H]2C[C@@H]2C(=O)Nc2nc3ccc(-c4cn[nH]c4)cc3s2)c1` (racemic) gave a solubility in [3] of 11 µM (≈ 4.59 µg/mL). In addition, in series [5], the logD is 2.8.

As for `CN(C)Cc1ccc([C@H]2C[C@@H]2C(=O)Nc2nc3ccc(-c4cccnc4)cc3s2)cc1` (racemic), in series [3], the solubility is below 1 µM. For the same molecule, in [5], the logD is 2.7.

The values above are taken from ChEMBL document CHEMBL3085719, “Structure-based design and synthesis of potent benzothiazole inhibitors of interleukin-2 inducible T cell kinase (ITK)” (Bioorg Med Chem Lett, 2013).
